For one data set, the system named is HepG2. Put plainly: Cytotoxicity against human HepG2 cells by MTT assay. It is filed as functional, cell-based. On the technique in general: Formazan colour is commonly taken as a measure of viable cells.
Data set [1] in a line: Aqueous solubility of the compound. It is filed as physicochemical.

Structures are written as SMILES. ≈ marks a conversion by molar mass, not a printed value.

The record followed here is ChEMBL document CHEMBL2375309, “19-[(1'S,4'R)-4'-Hydroxy-1'-methoxy-2'-oxopentyl]geldanamycin, a natural geldanamycin analogue from Streptomyces hygroscopicus 17997” (J Nat Prod, 2013).

For `COC1=C2C[C@@H](C)C[C@H](OC)[C@H](O)[C@@H](C)/C=C(\C)[C@H](OC(N)=O)[C@@H](OC)CC/C=C(\C)C(=O)NC(=C([C@H](OC)C(=O)C[C@@H](C)O)C1=O)C2=O`, in the data set with HepG2, the IC50 (in general, the concentration needed to halve the response being measured) was found to be 22.4 µM. In addition, the solubility (commonly the concentration that dissolves in the medium under given conditions) in data set [1] turned out to be 7700 µg/mL (≈ 11.1 mM).
As for `COC1=C2C[C@@H](C)C[C@H](OC)[C@H](O)[C@@H](C)/C=C(\C)[C@H](OC(N)=O)[C@@H](OC)/C=C\C=C(/C)C(=O)NC(=C([C@H](OC)C(=O)C[C@@H](C)O)C1=O)C2=O`, the IC50 in the data set on HepG2 is 14.6 µM. This molecule returned a solubility in data set [1] of 15400 µg/mL (≈ 22.3 mM).
The matching figures for `COC1=C2C[C@@H](C)C[C@H](OC)[C@H](O)[C@@H](C)/C=C(\C)[C@H](OC(N)=O)[C@@H](OC)/C=C\C=C(/C)C(=O)NC(=CC1=O)C2=O` [GELDANAMYCIN]: 0.3 µM and 2 µg/mL (≈ 0.00357 mM).
